# Source: patent US20070117743A1, “New antitumoral compounds” (priority 2003, published 2007)
# Where a SMILES comes first, the peptide text is derived from it. Bridges are numbered along the chain shown (N, C = ends). [ ]: non-standard residue; d: D form. The star is where a group is joined. Hexanoyl(4S-Me) = CC[C@H](C)CCC(=O)*; d(aIle) = CC[C@H](C)[C@@H](N)C(=O)O; d(aThr) = C[C@@H](O)[C@@H](N)C(=O)O; Orn = NCCC[C@H](N)C(=O)O; Dhb = C/C=C(\N)C(=O)O
# Key:
# Assay type in all cases: cell-based, human
# Conditions in all cases: 48 hours exposure, SRB
# SK-BR-3 = test: SRB colorimetric assay of cell growth and viability, SK-BR-3
# Excerpt: The finality of this assay is to interrupt the growth of a “in vitro” tumor cell culture by means a continued exhibition of the cells to the sample to be testing.
# This form of the assay employs 96 well cell culture microplates of 9 mm diameter (Faircloth, 1988; Mosmann, 1983). Most of the cell lines are obtained from American Type Culture Collection (ATCC) derived from different human cancer types.
# Cells are maintained in RPMI 1640 10% FBS, supplemented with 0.1 g/l penicillin and 0.1 g/l streptomycin sulfate and then incubated at 37° C., 5% CO2 and 98% humidity. For the experiments, cells were harvested from subconfluent cultures using trypsin and resuspended in fresh medium before plating.
# Cells are seeded in 96 well microtiter plates, at 5×10^3 cells per well in aliquots of 195 μL medium, and they are allowed to attach to the plate surface by growing in drug free medium for 18 hours. Afterward, samples are added in aliquots of 5 μL in a ranging from 10 to 10^−8 μg/mL, dissolved in DMSO:EtOH:PBS (0.5:0.5:99). After 48 hours exposure, the antitumor effect are measured by the SRB methodology: cells are fixed by adding 50 μL of cold 50% (wt/vol) trichloroacetic acid (TCA) and incubating for 60 minutes at 4° C. Plates are washed with deionized water and dried. One hundred μL of SRB solution (0.4% wt/vol in 1% acetic acid) is added to each microtiter well and incubated for 10 minutes at room temperature. Unbound SRB is removed by washing with 1% acetic acid. Plates are air dried and bound stain is solubilized with Tris buffer. Optical densities are read on a automated spectrophotometric plate reader at a single wavelength of 490 nm.
# The values for mean+/− SD of data from triplicate wells are calculated. Some parameters for cellular responses can be calculated: GI=growth inhibition, TGI=total growth inhibition (cytostatic effect) and LC=cell killing (cytotoxic effect).
# K-562 = test: SRB colorimetric assay of cell growth and viability, K-562
# HeLa-APL = test: SRB colorimetric assay of cell growth and viability, HeLa-APL
# A-549 = test: SRB colorimetric assay of cell growth and viability, A-549
# LoVo-Dox = test: SRB colorimetric assay of cell growth and viability, LoVo-Dox
# Procedure, shortened: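 Cells in RPMI 1640 with 10% FBS were seeded at 5×10^3 per well and left 18 hours drug-free before compounds (10 to 10^−8 μg/mL in DMSO:EtOH:PBS 0.5:0.5:99) were added for 48 hours. TCA-fixed cells were stained with SRB and read at 490 nm; triplicate wells gave GI, TGI and LC.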
# LoVo = test: SRB colorimetric assay of cell growth and viability, LoVo
# PANC-1 = test: SRB colorimetric assay of cell growth and viability, PANC-1
# HeLa = test: SRB colorimetric assay of cell growth and viability, HeLa
# SK-MEL-28 = test: SRB colorimetric assay of cell growth and viability, SK-MEL-28
# IGROV-1 = test: SRB colorimetric assay of cell growth and viability, IGROV-1
# DU-145 = test: SRB colorimetric assay of cell growth and viability, DU-145
# IGROV-ET = test: SRB colorimetric assay of cell growth and viability, IGROV-ET
# HT-29 = test: SRB colorimetric assay of cell growth and viability, HT-29
compound,measurement,setting,value
"C/C=C1\NC(=O)[C@H](Cc2ccc(OC)cc2)NC(=O)[C@@H](C(C)C)NC(=O)[C@@H]([C@@H](C)CC)NC(=O)[C@H](NC(=O)[C@H](NC(=O)[C@H](CCCN)NC(=O)[C@H]2CCCN2C(=O)[C@H](NC(=O)[C@@H](NC(=O)[C@@H](NC(=O)[C@H](NC(=O)CC[C@@H](C)CC)C(C)C)[C@@H](C)O)C(C)C)C(C)C)[C@@H](C)CC)[C@@H](C)OC(=O)[C@H](C(C)C)NC1=O [Compound 75, [Tyr(Me)^3, (4S)-MeHex^14]-KF] ({Hexanoyl(4S-Me)}-[dV]TV[dV][dP][Orn][d(aIle)][d(aThr)][d(aIle)][dV]Y(Me)[Dhb]V; ester 8-C)",GI50,SK-BR-3,251 nM
same,LC50,SK-BR-3,2380 nM
same,TGI SK-BR-3,SK-BR-3,6.03E−07 Molar
same,GI50,K-562,533 nM
same,TGI K-562,K-562,2.15E−06 Molar
same,CC50,K-562; read-out: LC50 K-562,6.63 µM
same,GI50,HeLa-APL,942 nM
same,TGI HELA-APL,HeLa-APL,1.78E−06 Molar
same,CC50,HeLa-APL; read-out: LC50 HELA-APL,3.38 µM
same,TGI A-549,A-549,1.91E−06 Molar
same,GI50,A-549; read-out: GI50 A-549,1030 nM
same,CC50,A-549; read-out: LC50 A-549,3.55 µM
same,GI50,LoVo-Dox,137 nM
same,TGI LOVO-DOX,LoVo-Dox,2.27E−07 Molar
same,CC50,LoVo-Dox; read-out: LC50 LOVO-DOX,379 nM
same,GI50,LoVo,126 nM
same,TGI LOVO,LoVo,2.22E−07 Molar
same,CC50,LoVo; read-out: LC50 LOVO,391 nM
same,GI50,PANC-1,1700 nM
same,TGI PANC-1,PANC-1,3.08E−06 Molar
same,CC50,PANC-1; read-out: LC50 PANC-1,5.59 µM
same,GI50,HeLa,509 nM
same,TGI HELA,HeLa,1.18E−06 Molar
same,CC50,HeLa; read-out: LC50 HELA,2500 nM
same,GI50,SK-MEL-28,975 nM
same,TGI MEL-28,SK-MEL-28,1.82E−06 Molar
same,CC50,SK-MEL-28; read-out: LC50 MEL-28,3.4 µM
same,GI50,IGROV-1,350 nM
same,LC50 (concentration causing 50% net cell killing),IGROV-1,2360 nM
same,TGI IGROV,IGROV-1,8.36E−07 Molar
same,GI50,DU-145,749 nM
same,LC50 (concentration causing 50% net cell kill),DU-145,3.16 µM
same,TGI DU-145,DU-145,1.54E−06 Molar
same,GI50,IGROV-ET,380 nM
same,TGI IGROV-ET,IGROV-ET,9.09E−07 Molar
same,CC50,IGROV-ET; read-out: LC50 IGROV-ET,2410 nM
same,TGI HT-29,HT-29,2.80E−07 Molar
same,GI50,HT-29; read-out: GI50 HT-29,158 nM
same,CC50,HT-29; read-out: LC50 HT-29,495 nM
